# Columns and labels:
# [1] = system: bacteria, fungi and yeasts; details: WO 2013/017257 A1; cited from earlier work
# [2] = Kauri butanol value (solvent power), ASTM D1133; type: physicochemical; details: Table 2, comparison with conventional solvents
# Text: The "Kb value" is a measure of solvent power, and may be determined using the standardized test ASTM D1133. A high Kb value is an indication that the isosorbide ester is more capable in dissolving a wide range of resins of varying nature, and in higher concentrations, as compared to existing solvents used in offset printing inks. This is important as offset inks usually contain besides one or more pigments, approximately 40-65 wt. % of resin binders, for example rosin resins, maleic resins, hydrocarbon resins and alkyd resins, to ensure formation of a polymer film which binds the pigments or dyes together and provides resistance properties. Such resin binders are usually absent in inkjet printing inks. The offset printing ink may further comprise approximately 3 - 6 wt. % of additives, for example waxes, siccative agents and/or inhibitors. Without wanting to be bound by this theory, the applicants believe that this advantageous combination of properties, i.e. high wetting power of the pigments and high Kb value associated with good dissolution properties for the resin component present in the offset ink, must be attributed to the structure of the isosorbide moiety in the ester molecule. […]
# In addition the inventors have observed that the Kb value may further be tuned by varying the nature of the carboxylic acid of the isosorbide ester and/or by varying the degree of esterification, in order to provide an ester with good solvent properties or an ester which functions much more as a diluent for the other components present in a formulation. […] Kauri resin is readily soluble in 1-butanol but is not soluble in many other solvents. […] Better solvents, for example toluene, may be added up to larger quantities before the solution becomes cloudy, and thus have a high Kauri butanol value. Weaker solvents like hexane may only be added in smaller quantities and will have a small Kauri butanol value. The Kauri butanol value (Kb value) is usually determined according to ASTM D1133 standardized test. […]
# [3] = Surface tension, Du Noüy ring method; type: physicochemical
# Experimental: The surface tension was measured using the Du Noüy ring method (http://www.kruss.de/en/theory/measurements/surface-tension/ring-method.html. The surface or interfacial tension is measured with the help of an optimally wettable ring suspended from a precision balance. A height-adjustable sample carrier is used to bring the liquid to be measured into contact with the probe. A force acts on the balance as soon as the probe touches the surface. If the length of the probe is known (circumference of ring or length of plate) the force measured can be used to calculate the interfacial or surface tension. A further requirement is that the probe must have a very high surface energy. This is why a platinum-iridium alloy is used for the ring and roughened platinum for the plate.
# The liquid is raised until contact with the surface is registered. The sample is then lowered again so that the liquid film produced beneath the ring is stretched. As the film is stretched a maximum force is experienced; this is recorded in the measurement. At the maximum the force vector is exactly parallel to the direction of motion; at this moment the contact angle θ is 0°. In practice the distance is first increased until the area of maximum force has been passed through. The sample vessel containing the liquid is then moved back so that the maximum point is passed through a second time. The maximum force is only determined exactly on this return movement and used to calculate the tension. The calculation is made according to the following equation: σ = (Fmax −FV)/(L⋅cosθ) [formula] (σ =surface or interfacial tension; Fmax=maximum force; FV=weight of volume of liquid lifted; L=wetted length, θ=contact angle) The contact angle θ decreases as the extension increases and has the value 0° at the point of maximum force, this means that the term cos θ has the value 1.
Compound,antimicrobial activity [1],Kauri butanol ASTM D 1133 [2],Surface tension Du Noüy ring method [3] [mN/m]
isosorbide monocaprylate,responsible for the antimicrobial activity observed,,
Cc1ccccc1 [Toluene],,105,29
Xylene,,90,29
isosorbide dicaprylate,"isosorbide itself, nor the dicaprylate, exhibit any such activity",,
C=C(C)[C@H]1CC=C(C)CC1 [D-limonene],,67,25
"O[C@@H]1CO[C@H]2[C@@H]1OC[C@@H]2O [isosorbide, Isosorbide]","isosorbide itself, nor the dicaprylate, exhibit any such activity",,
